The text below walks through data of US10316039B2, “P2X3 and/or P2X2/3 compounds and methods” (Asana Biosciences, LLC, priority 2013, dated 2019).

Assay [1] concerns the target T1, P2X3 (UniProt P56373).
T1 sequence (P56373 1-397): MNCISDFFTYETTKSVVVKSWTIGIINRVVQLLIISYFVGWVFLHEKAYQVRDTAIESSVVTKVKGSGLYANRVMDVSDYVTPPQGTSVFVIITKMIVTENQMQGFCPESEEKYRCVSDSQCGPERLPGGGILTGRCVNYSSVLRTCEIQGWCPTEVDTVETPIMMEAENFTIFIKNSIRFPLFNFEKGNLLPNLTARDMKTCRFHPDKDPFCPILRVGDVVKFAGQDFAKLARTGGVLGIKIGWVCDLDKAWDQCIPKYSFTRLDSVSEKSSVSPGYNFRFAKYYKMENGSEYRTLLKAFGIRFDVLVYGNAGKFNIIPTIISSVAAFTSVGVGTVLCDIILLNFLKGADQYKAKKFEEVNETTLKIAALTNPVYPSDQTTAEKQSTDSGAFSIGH
Put plainly: P2X3 FLIPR intracellular calcium assay. Type of assay: cell-based. The note with it: agonist at EC75, species (human or rat) not given. The procedure, abridged: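 Human P2X3-HEK, human P2X2/3-TRex293, rat P2X2/3-TRex293 or rat P2X3 TRex-CHO cells loaded with Calcium 4 dye (1.8 mM probenecid, pH 7.4).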

Assay [2] addresses T2, P2X2/3 (Homo sapiens, UniProt P56373+Q9UBL9).
T2 sequence (Q9UBL9 1-471): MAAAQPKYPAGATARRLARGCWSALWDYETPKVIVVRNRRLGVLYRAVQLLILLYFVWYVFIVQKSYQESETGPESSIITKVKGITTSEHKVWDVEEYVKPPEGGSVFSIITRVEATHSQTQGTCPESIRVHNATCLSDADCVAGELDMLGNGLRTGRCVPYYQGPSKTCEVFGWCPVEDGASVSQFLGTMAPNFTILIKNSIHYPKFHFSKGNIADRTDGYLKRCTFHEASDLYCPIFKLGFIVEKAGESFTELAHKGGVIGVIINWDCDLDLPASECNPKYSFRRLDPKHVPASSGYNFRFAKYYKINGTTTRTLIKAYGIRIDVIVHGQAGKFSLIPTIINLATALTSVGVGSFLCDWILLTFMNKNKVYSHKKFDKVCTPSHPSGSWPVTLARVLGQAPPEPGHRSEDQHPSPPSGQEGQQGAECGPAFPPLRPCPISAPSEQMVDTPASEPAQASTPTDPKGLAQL
T2 sequence (P56373 1-397): T1 sequence (P56373 1-397)
Put plainly: P2X2/3 FLIPR intracellular calcium assay. The class given is cell-based. The following applies: agonist at EC75, species (human or rat) not given. The method, boiled down:
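Stable human P2X2/3 TRex293 cells (doxycycline-induced) loaded with Calcium 4 dye; compounds, 11-point half-log series from 2 mM top stock, preincubated 15 min at RT in HBSS/HEPES pH 7.4 with 1.8 mM CaCl2. Agonist added at EC75; fluorescence change versus no-compound wells gave IC50.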
On the technique in general: A change in cytosolic calcium serves as a functional read-out for many receptors and channels.

Some results are limits rather than exact numbers.

As usually defined, the IC50 is the concentration that inhibits the measured activity by half. As for `Cc1ccc(-c2cnc3c(-n4nnnc4C(F)F)cc(C(=O)N[C@@H](C)c4nnc[nH]4)cn23)s1` [Example 168], the IC50 in assay [1] and in assay [2] was 1 to 100 nM in each case.
For `COc1ncc(CNC(=O)c2cc(-n3nnnc3C(F)F)c3ncc(-c4ccc(C)s4)n3c2)cn1` [Example 169], the IC50 in assay [1] and in assay [2] was 1 to 100 nM in each case.
As for `C[C@H](NC(=O)c1cc(-n2nnnc2C(F)F)c2ncc(-c3ccc(Cl)s3)n2c1)c1nnc[nH]1` [Example 170], the IC50 in assay [1] and in assay [2] was 1 to 100 nM throughout.
With `CC[C@H](NC(=O)c1cc(-n2nnnc2C(F)F)c2ncc(-c3ccc(C)s3)n2c1)c1nnc[nH]1` [Example 171], the IC50 in assay [1] and in assay [2] was 1 to 100 nM throughout.
Turning to `Cc1ncc(CNC(=O)c2cc(-n3nnnc3C(F)F)c3ncc(-c4ncc(C)s4)n3c2)cn1` [Example 172], the IC50 in assay [1] and in assay [2] was 1 to 100 nM in each case.
`Cc1ccc(CNC(=O)c2cc(-n3nnnc3C(F)F)c3ncc(-c4ncc(C)s4)n3c2)cn1` [Example 173]: the half-maximal inhibitory concentration (IC50) in assay [1] and in assay [2] was 100 to 1000 nM in each case.
On to `CC[C@H](NC(=O)c1cc(-n2nnnc2C(F)F)c2ncc(-c3ccc(Cl)s3)n2c1)c1nnc[nH]1` [Example 174], for which the IC50 in assay [1] and in assay [2] was 1 to 100 nM in each case.
With `C[C@H](NC(=O)c1cc(-n2nnnc2C2CC2)c2ncc(-c3ccc(Cl)s3)n2c1)c1nnc[nH]1` [Example 175], the IC50 in assay [1] was in the range of 100 to 1000 nM; in assay [2], 1000 to 10000 nM.
Taken in the same sequence, the figures for `Cc1ncc(CNC(=O)c2cc(-n3nnnc3C(F)F)c3ncc(-c4ccc(Cl)s4)n3c2)cn1` [Example 176] were 100 to 1000 nM and 100 to 1000 nM.
For the compound `Cc1ncc(CNC(=O)c2cc(-n3nnnc3C(F)F)c3ncc(-c4ccc(C)s4)n3c2)cn1` [Example 177], the half-inhibitory concentration (IC50) in assay [1] and in assay [2] was 1 to 100 nM each time.
On to `CCc1nnnn1-c1cc(C(=O)N[C@@H](C)c2nnc[nH]2)cn2c(-c3ccc(C)s3)cnc12` [Example 178], for which the results for the 50% inhibitory concentration (IC50) in assay [1] and in assay [2] were 1 to 100 nM and 100 to 1000 nM, respectively.
The matching figures for `CCCc1nnnn1-c1cc(C(=O)N[C@@H](C)c2nnc[nH]2)cn2c(-c3ccc(C)s3)cnc12` [Example 179]: 1 to 100 nM and 1 to 100 nM.
The matching figures for `Cc1nnc([C@@H](C)NC(=O)c2cc(-n3nnnc3C(F)F)c3ncc(-c4ccc(C)s4)n3c2)o1` [Example 180]: 1 to 100 nM and 1 to 100 nM.
Take `Cc1ccc(-c2cnc3c(-n4nnnc4CC(F)(F)F)cc(C(=O)N[C@@H](C)c4nnc[nH]4)cn23)s1` [Example 181]: the concentration for half-maximal inhibition (IC50) in assay [1] and in assay [2] was 1 to 100 nM in each case.
As for `Cc1ccc(-c2cnc3c(-n4nnnc4C(C)(F)F)cc(C(=O)N[C@@H](C)c4nnc[nH]4)cn23)s1` [Example 182], the half-maximal inhibitory concentration (IC50) in assay [1] and in assay [2] was 1 to 100 nM each time.
With `Cc1ncc(CNC(=O)c2cc(-n3nnnc3C(F)F)c3ncc(-c4ccc(C)o4)n3c2)cn1` [Example 183], the IC50 in assay [1] and in assay [2] was 100 to 1000 nM throughout.
For `C[C@H](NC(=O)c1cc(-n2nnnc2C(C)(F)F)c2ncc(-c3ccc(Cl)s3)n2c1)c1nnc[nH]1` [Example 184], the IC50 in assay [1] and in assay [2] was 1 to 100 nM each time.
Consider `Cc1cnc(CNC(=O)c2cc(-n3nnnc3C(F)F)c3ncc(-c4ncc(C)s4)n3c2)cn1` [Example 185], for which the IC50 lay within 100 to 1000 nM in assay [1] and 1000 to 10000 nM in assay [2].
Consider `Cc1noc([C@@H](C)NC(=O)c2cc(-n3nnnc3C(C)(F)F)c3ncc(-c4ccc(C)s4)n3c2)n1` [Example 186], for which the half-inhibitory concentration (IC50) in assay [1] is more than 10000 nM; in assay [2], 1 to 100 nM.
On to `CCC(=O)N(C)c1cc(C(=O)N[C@@H](C)c2nnc[nH]2)cn2c(-c3ccc(C)s3)cnc12` [Example 187], for which the results for the half-inhibitory concentration (IC50) in assay [1] and in assay [2] were 1 to 100 nM and 100 to 1000 nM, respectively.
Taken in the same sequence, the figures for `CCC(=O)N(c1cc(C(=O)N[C@@H](C)c2nnc[nH]2)cn2c(-c3ccc(C)s3)cnc12)C1CC1` [Example 188] were 1 to 100 nM and 100 to 1000 nM.
